In patent US4800191A, “LHRH antagonists” (priority 1987, dated 1989):
“And” between values parts separate entries of the source, which are not always exact repeats. Identical values can stand only once. *1 amine or outer side, *2 acyl side, *3 side chain or, on linkers, in order; H or OH if unused. Where a SMILES comes first, the peptide text is derived from it. Side-chain parts run from the residue outwards. [ ]: non-standard residue; d: D form. dPhe(4-Cl) = N[C@H](Cc1ccc(Cl)cc1)C(=O)O; d2Nal = N[C@H](Cc1ccc2ccccc2c1)C(=O)O; d(hCit) = NC(=O)NCCCC[C@@H](N)C(=O)O; dCit = NC(=O)NCCC[C@@H](N)C(=O)O; dOrn = NCCC[C@@H](N)C(=O)O; CO = O=C([*:1])[*:2]

Tested on: rats
Test: edematogenic test of Schmidt, et al.
Assay type: in vivo, rat
Settings: 1.5 mg/kg s.c. once a day on two consecutive days; for 1st Day FR (full responders: facial edema with edematous extremities), rats / 1st Day PR (partial responders: edema of the nasal and paranasal area), rats / 1st Day NR (no apparent reaction), rats: day 1; for 1st Day NR (no apparent reaction), rats: observed five hours each day; for 2nd Day FR (full responders: facial edema with edematous extremities), rats / 2nd Day NR (no apparent reaction), rats / 2nd Day PR (partial responders: edema of the nasal and paranasal area), rats: day 2
Protocol: In the edematogenic test of Schmidt, et al. (Contraception, 29, 283-289, 1984), however, a marked difference can be found between the control peptides and the peptides of the present invention. The control peptides produce edema of the face and extremities when administered subcutaneously in rats at doses of 0.75 or 1.25 mg/kg. No such reaction can be observed with the peptides of the present invention when given at a subcutaneous dose of 1.5 mg/kg.
In the tests as run the rats were assigned to three groups of five rats per group per compound tested. Comparison with made with a known prior art compound designated ORG 30276 namely (N-Ac-D-p-Cl-Phe^1,2, D-Trp^3, D-Arg^6, D-Ala^10)-LHRH. The groups were injected subcuntaneously once a day on two consecutive days with the LHRH antagonists at a dose level of 1.5 mg/kg. One control group was injected with diluent only. The rats were observed during five hours each day. Reactions of the rats were classified as follows: NR no apparent reaction, PR partial responders: edema of the nasal and paranasal area, FR full responders: facial edema with edematous extremities.

Compound | 1st Day FR (full responders: facial edema with edematous extremities), rats | 1st Day PR (partial responders: edema of the nasal and paranasal area), rats | 1st Day NR (no apparent reaction), rats | 2nd Day FR (full responders: facial edema with edematous extremities), rats | 2nd Day NR (no apparent reaction), rats | 2nd Day PR (partial responders: edema of the nasal and paranasal area), rats
CCNC(=O)NCCC[C@@H](NC(=O)[C@H](Cc1ccc(O)cc1)NC(=O)[C@H](CO)NC(=O)[C@@H](Cc1c[nH]c2ccccc12)NC(=O)[C@@H](Cc1ccc(Cl)cc1)NC(=O)[C@@H](Cc1ccc2ccccc2c1)NC(C)=O)C(=O)N[C@@H](CC(C)C)C(=O)N[C@@H](CCCNC(=N)N)C(=O)N1CCC[C@H]1C(=O)N[C@H](C)C(N)=O [EX IV, Ac-D-Nal(2)-D-Phe(4-Cl)-D-Trp-Ser-Tyr-D-Cit(Et)-Leu-Arg-Pro-D-Ala-NH2] (Ac-[d2Nal][dPhe(4-Cl)][dW]SY[dOrn]([CO-NHEt])LRP[dA]-NH2) | 0 | 0 | 9 | 0 | 9 | 0
CC(=O)N[C@H](Cc1ccc(Cl)cc1)C(=O)N[C@H](Cc1ccc(Cl)cc1)C(=O)N[C@H](Cc1c[nH]c2ccccc12)C(=O)N[C@@H](CO)C(=O)N[C@@H](Cc1ccc(O)cc1)C(=O)N[C@H](CCCNC(=N)N)C(=O)N[C@@H](CC(C)C)C(=O)N[C@@H](CCCNC(=N)N)C(=O)N1CCC[C@H]1C(=O)N[C@H](C)C(N)=O [ORG 30276, (N-Ac-D-p-Cl-Phe^1,2, D-Trp^3, D-Arg^6, D-Ala^10)-LHRH, reference compound] (Ac-[dPhe(4-Cl)][dPhe(4-Cl)][dW]SY[dR]LRP[dA]-NH2) | 0 | 5 and 3 | – | 6 and 3 | – | 2 and 1
Ac-[d2Nal][dPhe(4-Cl)][dW]SY[d(hCit)]RP[dA]-NH2 [EX I] | 0 | 0 | 8 | 0 | 8 | 0

Results, then the compound that gave them:

1st Day FR (full responders: facial edema with edematous extremities), rats | 1st Day PR (partial responders: edema of the nasal and paranasal area), rats | 1st Day NR (no apparent reaction), rats | 2nd Day FR (full responders: facial edema with edematous extremities), rats | 2nd Day NR (no apparent reaction), rats | 2nd Day PR (partial responders: edema of the nasal and paranasal area), rats | Compound
0 | 0 | 8 | – | – | – | CC(=O)N[C@H](Cc1ccc2ccccc2c1)C(=O)N[C@H](Cc1ccc(Cl)cc1)C(=O)N[C@H](Cc1c[nH]c2ccccc12)C(=O)N[C@@H](CO)C(=O)N[C@@H](Cc1ccc(O)cc1)C(=O)N[C@H](CCCNC(N)=O)C(=O)N[C@@H](CC(C)C)C(=O)N[C@@H](CCCNC(=N)N)C(=O)N1CCC[C@H]1C(=O)N[C@H](C)C(N)=O [EX III, Ac-D-Nal(2)-D-Phe(4-Cl)-D-Trp-Ser-Tyr-D-Cit-Leu-Arg-Pro-D-Ala-NH^2] (Ac-[d2Nal][dPhe(4-Cl)][dW]SY[dCit]LRP[dA]-NH2)
0 | 0 | 9 | 0 | 8 | 1 | CC(=O)N[C@H](Cc1ccc(Cl)cc1)C(=O)N[C@H](Cc1ccc(Cl)cc1)C(=O)N[C@H](Cc1c[nH]c2ccccc12)C(=O)N[C@@H](CO)C(=O)N[C@@H](Cc1ccc(O)cc1)C(=O)N[C@H](CCCCNC(N)=O)C(=O)N[C@@H](CC(C)C)C(=O)N[C@@H](CCCNC(=N)N)C(=O)N1CCC[C@H]1C(=O)N[C@H](C)C(N)=O [EX V, Ac-D-Phe(4-Cl)-D-Phe(4-Cl)-D-Trp-Ser-Tyr-D-Hci-Leu-Arg-Pro-D-Ala-NH2] (Ac-[dPhe(4-Cl)][dPhe(4-Cl)][dW]SY[d(hCit)]LRP[dA]-NH2)
